Experimental data as given in ChEMBL document CHEMBL4706686, “Design, synthesis and biological evaluation of dihydrofurocoumarin derivatives as potent neuraminidase inhibitors” (Bioorg Med Chem Lett, 2021).

Assay: Inhibition of Influenza virus H5N1 neuraminidase
Design: species or system H5N1 subtype

| Structure (SMILES) | IC50 [µM] |
| --- | --- |
| CCC(CC)O[C@@H]1C=C(C(=O)O)C[C@H](N)[C@H]1NC(C)=O [OSELTAMIVIR CARBOXYLATE] | 0.04 |
| Cc1cc(=O)oc2c3c(ccc12)O/C(=C\c1cc([N+](=O)[O-])ccc1F)C3=O | 99.8 |
| Cc1cc(=O)oc2c3c(ccc12)O/C(=C\c1ccc(O)c([N+](=O)[O-])c1)C3=O | 0.02 |
| Cc1cc(=O)oc2c3c(ccc12)O/C(=C\c1ccc(Cl)cc1Cl)C3=O | 36.2 |
| Cc1cc(=O)oc2c3c(ccc12)O/C(=C\c1ccc([N+](=O)[O-])c(O)c1)C3=O | 0.03 |
| COc1ccc(/C=C2\Oc3ccc4c(C)cc(=O)oc4c3C2=O)cc1O | 0.04 |
| CCCOc1ccc(/C=C2\Oc3ccc4c(C)cc(=O)oc4c3C2=O)cc1 | 45.8 |
| Cc1cc(=O)oc2c3c(ccc12)O/C(=C\c1ccc(OS(C)(=O)=O)cc1)C3=O | 32.4 |
| CCOC(=O)C1=C[C@@H](OC(CC)CC)[C@H](NC(C)=O)[C@@H](N)C1 [OSELTAMIVIR] | 0.1 |
| COc1cc(/C=C2\Oc3ccc4c(C)cc(=O)oc4c3C2=O)cc(OC)c1O | 0.15 |
| CCOc1cc(/C=C2\Oc3ccc4c(C)cc(=O)oc4c3C2=O)ccc1O | 30 |
| Cc1cc(=O)oc2c3c(ccc12)O/C(=C\c1ccccn1)C3=O | 39.5 |
